Measured values published in patent US10239957B2, “Peptide containing conjugates for dual molecular delivery of oligonucleotides” (Merck Sharp & Dohme Corp., priority 2013, dated 2019).
Where no end group is shown, it is not given here. [ ]: non-standard residue; d: D form. TGN = not defined here

System: CTNNB1
Experiment: In vitro DMD assay: mRNA silencing enhancement by peptide conjugates after siRNA-IV treatment
Format: cell-based
Conditions: primary mouse hepatocytes, siRNA-IV 125 nM baseline
Method: Cryopreserved primary Mouse hepatocytes (Bioreclamation, LLC) were placed into Collagen Type I coated 96-well plates at 25,000 cells per well in serum-containing InVitroGRO CP media (Bioreclamation, LLC) and allowed 5 hours to attach. Media was replaced with InVitroGRO HI media and cells were treated with siRNA-IV at 125 nM [siRNA] for 1 hour. Media was replaced with InVitroGRO HI media and cells were treated for approximately 16 hours with experimental Peptide conjugates at various concentrations to establish a dose-response curve. Peptide conjugates were washed out after 16 hours with InVitroGRO HI media and cells allowed to incubate for an additional 24 hours. Cells were then lysed and mRNA expression of the siRNA target was measured by RT-qPCR (Applied Biosystems Taqman reagents). mRNA silencing activity of each Peptide conjugate was expressed as an enhancement above the baseline activity of 125 nM siRNA-IV alone with respect to the untreated cells and all siRNA target Ct values were normalized to PPIB mRNA for each well (dddCt) and summarized.
The structure of TGN-S-S-peptide is shown below and the activity data is listed in Table 5 (siRNA-IV concentration was kept at […]).

Substance | In vitro dddCt (vs. baseline SCE dose) (Targeted peptide dose 8 nM) | In vitro dddCt (vs. baseline SCE dose) (Targeted peptide dose 40 nM) | In vitro dddCt (vs. baseline SCE dose) (Targeted peptide dose 200 nM) | In vitro dddCt (vs. baseline SCE dose) (Targeted peptide dose 1000 nM) | In vitro dddCt (vs. baseline SCE dose) (Targeted peptide dose 5000 nM) | In vitro dddCt (vs. baseline SCE dose) (Targeted peptide dose 24 nM) | In vitro dddCt (vs. baseline SCE dose) (Targeted peptide dose 120 nM) | In vitro dddCt (vs. baseline SCE dose) (Targeted peptide dose 600 nM) | In vitro dddCt (vs. baseline SCE dose) (Targeted peptide dose 3000 nM) | In vitro dddCt (vs. baseline SCE dose) (Targeted peptide dose 15000 nM)
TGN-S-S-SEQ ID NO: 1755 (D) ([dC]G[dL][dF]G[dE][dI][dE][dE][dL][dF][dE][dE]G[dL][dE][dN][dL][dI][dD][dW]G[dN]G; not fully specified (residue 1); also: disulfide to TGN peptide via Cys1; listed as Homo sapiens) | −0.01 | −0.24 | −0.38 | −0.49 | −0.24 |  |  |  |  | 
TGN-S-S-Seq-ID-57 (L) (C(TGN)GLFGALLELLESLWKGLLEWYGRKKRRQRR; reading uncertain; also: disulfide-linked to TGN peptide via Cys; listed as Homo sapiens) | 0.1 | 0 | 0.02 | 0.1 | 0.09 |  |  |  |  | 
TGN-S-S-SEQ ID NO: 1760 (D) ([dC]G[dL][dF]G[dE][dI][dE][dE][dL][dI][dE][dE]G[dL][dE][dQ][dL][dI][dD][dW]G[dN]G; not fully specified (residue 1); also: disulfide to TGN peptide via Cys1; listed as Homo sapiens) | −0.09 | −1.01 | −1.6 | −1.8 | −1.46 |  |  |  |  | 
TGN-S-S-SEQ ID NO: 1752 (D) ([dC]G[dL][dF]G[dE][dI][dE][dE][dW][dI][dE][dE]G[dL][dE][dN][dL][dI][dD][dW]G[dN]G; not fully specified (residue 1); also: disulfide to TGN peptide via Cys1; listed as Homo sapiens) | −0.25 | −0.48 | −0.89 | −0.95 | −1.02 |  |  |  |  | 
TGN-S-S-SEQ ID NO: 1796 (D) ([dC]G[dL][dW]G[dE][dI][dE][dE][dL][dI][dE][dE]G[dL][dE][dN][dL][dI][dD][dW]G[dN]G; not fully specified (residue 1); also: TGN conjugated via disulfide at Cys1; listed as Homo sapiens) | 0.05 | −0.56 | −1.13 | −1.98 | −1.81 |  |  |  |  | 
TGN-S-S-Seq-ID-65 (D) ([dC][dI][dF]G[dA][dI][dA]G[dF][dI][dK][dN][dI][dW][dK]; not fully specified (residue 1); also: disulfide-linked to TGN peptide via Cys; listed as Homo sapiens) | 0 | −0.73 | −1.48 | −1.88 | −2.68 |  |  |  |  | 
TGN-S-S-SEQ ID NO: 1741 (L) (GLFGALAEALAEALAEHLAEALAEALEALAAGGSC(TGN); reading uncertain; also: TGN linked to Cys via disulfide, TGN not defined; listed as Homo sapiens) | 0.03 | −0.11 | −0.25 | 0.98 | −0.58 | 0 | 0.02 | −0.08 | −0.4 | −0.25
TGN-S-S-SEQ ID NO: 1786 (D) ([dC]G[dL][dF]G[dE][dI][dE][dE][dL][dW][dE][dE]G[dL][dE][dN][dL][dI][dD][dW]G[dN]G; not fully specified (residue 1); also: TGN conjugated via disulfide at Cys1; listed as Homo sapiens) | 0.17 | 0.13 | 0.06 | 0.06 | 0.18 |  |  |  |  | 
TGN-S-S-SEQ ID NO: 1785 (D) ([dC]G[dL][dF]G[dE][dL][dE][dE][dL][dI][dE][dE]G[dL][dE][dN][dL][dI][dD][dW]G[dN]G; not fully specified (residue 1); also: TGN conjugated via disulfide at Cys1; listed as Homo sapiens) | −0.1 | −0.44 | −1.68 | 0.84 | −2.03 |  |  |  |  | 
TGN-S-S-SEQ ID NO: 1793 (D) ([dC]G[dL][dL]G[dE][dI][dE][dE][dL][dI][dE][dE]G[dL][dE][dN][dL][dI][dD][dW]G[dN]G; not fully specified (residue 1); also: TGN conjugated via disulfide at Cys1; listed as Homo sapiens) | −0.02 | −1.04 | −2.36 | −2.75 | −2.65 |  |  |  |  | 
TGN-S-S-SEQ ID NO: 1780 (D) ([dC]G[dL][dF]G[dE][dI][dA][dE][dL][dI][dE][dE]G[dL][dE][dN][dL][dI][dD][dW]G[dN]G; not fully specified (residue 1); also: TGN conjugated via disulfide at Cys1; listed as Homo sapiens) | −0.11 | −1.05 | −2.83 | 0.18 | −3.2 |  |  |  |  | 
TGN-S-S-SEQ ID NO: 1772 (D) ([dC]G[dL][dF][dE][dA][dL][dL][dE][dL][dL][dE][dS][dL][dW][dE][dL][dL][dL][dE][dA]G[dY]G; not fully specified (residue 1); also: TGN conjugated via disulfide at Cys1; listed as Homo sapiens) | 0.03 | −0.15 | −0.15 | −0.17 | −0.08 |  |  |  |  | 
TGN-S-S-Seq-ID-25 (D) ([dC][dI][dF]G[dA][dI][dA]G[dF][dI][dK][dN][dI][dW][dE]G[dL][dI][dD][dA][dF]; not fully specified (residue 1); also: disulfide-linked to TGN peptide via Cys; listed as Homo sapiens) | −0.06 | 0.2 | −0.13 | 0.01 | −1.72 |  |  |  |  | 
TGN-S-S-SEQ ID NO: 1758 (D) ([dC]G[dL][dF]G[dE][dI][dE][dE][dL][dI][dE][dE]G[dL][dE][dE][dL][dI][dD][dW]G[dN]G; not fully specified (residue 1); also: disulfide to TGN peptide via Cys1; listed as Homo sapiens) | 0.04 | −0.02 | −0.38 | −0.77 | −0.64 |  |  |  |  | 
